Assay results reported in patent US8697873B2, “Amide substituted imidazopyridines, imidazoquinolines, and imidazonaphthyridines” (3M Innovative Properties Company, priority 2004, dated 2014).

Row | SMILES | melting point [°C]
1 | CCOCc1nc2c(N)nc3ccccc3c2n1CCCC(N)=O [Example 33, 4-[4-Amino-2-(ethoxymethyl)-1H-imidazo[4,5-c]quinolin-1-yl]butanamide] | 233 to 235
2 | CCCc1nc2c(N)nc3ccccc3c2n1CCCCC(=O)N1CCOCC1 [Example 34, 1-(5-Morpholin-4-yl-5-oxopentyl)-2-propyl-1H-imidazo[4,5-c]quinolin-4-amine] | 178 to 179
3 | CCCc1nc2c(N)nc3ccccc3c2n1CCCCC(N)=O [Example 35, 5-(4-Amino-2-propyl-1H-imidazo[4,5-c]quinolin-1-yl)pentanamide] | 202 to 203
4 | COCCc1nc2c(N)nc3ccccc3c2n1CCCCC(=O)N1CCOCC1 [Example 36, 2-(2-Methoxyethyl)-1-(5-morpholin-4-yl-5-oxopentyl)-1H-imidazo[4,5-c]quinolin-4-amine] | 128 to 129
5 | CCCc1nc2c(N)nc3cccnc3c2n1CCCC(=O)N1CCOCC1 [Example 37, 1-(4-Morpholin-4-yl-4-oxobutyl)-2-propyl-1H-imidazo[4,5-c][1,5]naphthyridin-4-amine] | 196 to 197
6 | CCOCc1nc2c(N)nc3cccnc3c2n1CCCC(=O)N1CCOCC1 [Example 38, 2-(Ethoxymethyl)-1-(4-morpholin-4-yl-4-oxobutyl)-1H-imidazo[4,5-c][1,5]naphthyridin-4-amine] | 156 to 157
7 | CCOCc1nc2c(N)nc3cccnc3c2n1CCCC(N)=O [Example 39, 4-[4-Amino-2-(ethoxymethyl)-1H-imidazo[4,5-c][1,5]naphthyridin-1-yl]butanamide] | 231 to 232
8 | CCCc1nc2c(N)nc(C)c(C)c2n1CCCC(N)=O [Example 40, 4-(4-Amino-6,7-dimethyl-2-propyl-1H-imidazo[4,5-c]pyridin-1-yl)butanamide] | 226 to 228
9 | CCCc1nc2c(N)nc(C)c(C)c2n1CCCC(=O)N1CCOCC1 [Example 41, 6,7-Dimethyl-1-(4-morpholin-4-yl-4-oxobutyl)-2-propyl-1H-imidazo[4,5-c]pyridin-4-amine] | 164 to 165
10 | CCc1nc2c(N)nc(C)c(C)c2n1CCCC(N)=O [Example 42, 4-(4-Amino-2-ethyl-6,7-dimethyl-1H-imidazo[4,5-c]pyridin-1-yl)butanamide] | 228 to 230
11 | CCc1nc2c(N)nc(C)c(C)c2n1CCCC(=O)N1CCOCC1 [Example 43, 2-Ethyl-6,7-dimethyl-1-(4-morpholin-4-yl-4-oxobutyl)-1H-imidazo[4,5-c]pyridin-4-amine] | 209 to 210
12 | CCOCc1nc2c(N)nc(C)c(C)c2n1CCCC(N)=O [Example 44, 4-[4-Amino-2-(ethoxymethyl)-6,7-dimethyl-1H-imidazo[4,5-c]pyridin-1-yl]butanamide] | 199 to 200
13 | CCOCc1nc2c(N)nc(C)c(C)c2n1CCCC(=O)N1CCOCC1 [Example 45, 2-(Ethoxymethyl)-6,7-dimethyl-1-(4-morpholin-4-yl-4-oxobutyl)-1H-imidazo[4,5-c]pyridin-4-amine] | 156 to 158
14 | CCCCc1nc2c(N)nc3ccccc3c2n1CCCCC(=O)N1CCOCC1 [Example 46, 2-Butyl-1-(5-morpholin-4-yl-5-oxopentyl)-1H-imidazo[4,5-c]quinolin-4-amine] | 141 to 143
15 | Cc1nc2c(N)nc3ccccc3c2n1CCCCC(=O)N1CCOCC1 [Example 47, 2-Methyl-1-(5-morpholin-4-yl-5-oxopentyl)-1H-imidazo[4,5-c]quinolin-4-amine] | 218 to 219
16 | CCOCc1nc2c(N)nc3ccccc3c2n1CCCCC(=O)N1CCOCC1 [Example 48, 2-(Ethoxymethyl)-1-(5-morpholin-4-yl-5-oxopentyl)-1H-imidazo[4,5-c]quinolin-4-amine] | 128 to 129
17 | CCOCc1nc2c(N)nc3ccccc3c2n1CCCCC(N)=O [Example 49, 5-[4-Amino-2-(ethoxymethyl)-1H-imidazo[4,5-c]quinolin-1-yl]pentanamide] | 198 to 200
18 | CCCc1nc2c(N)nc3c(c2n1CCCCC(=O)N1CCOCC1)CCCC3 [Example 50, 1-(5-Morpholin-4-yl-5-oxopentyl)-2-propyl-6,7,8,9-tetrahydro-1H-imidazo[4,5-c]quinolin-4-amine] | 158 to 160

Row | SMILES | melting point [°C]
19 | CCCc1nc2c(N)nc3ccccc3c2n1CCC(=O)N(C)C [Example 51, 3-(4-Amino-2-propyl-1H-imidazo[4,5-c]quinolin-1-yl)-N,N-dimethylpropanamide] | 207 to 209
20 | CCCCc1nc2c(N)nc3ccccc3c2n1CCCCC(N)=O [Example 52, 5-(4-Amino-2-butyl-1H-imidazo[4,5-c]quinolin-1-yl)pentanamide] | 219 to 221
21 | CCCc1nc2c(N)nc3cccnc3c2n1CCCCCC(=O)N1CCOCC1 [Example 53, 1-(6-Morpholin-4-yl-6-oxohexyl)-2-propyl-1H-imidazo[4,5-c][1,5]naphthyridin-4-amine] | 148 to 150
22 | CCCc1nc2c(N)nc3cccnc3c2n1CCCCCC(N)=O [Example 54, 6-(4-Amino-2-propyl-1H-imidazo[4,5-c][1,5]naphthyridin-1-yl)hexanamide] | 216.5 to 217.5
23 | CCc1nc2c(N)nc3cccnc3c2n1CCCCCC(=O)N1CCOCC1 [Example 55, 2-Ethyl-1-(6-morpholin-4-yl-6-oxohexyl)-1H-imidazo[4,5-c][1,5]naphthyridin-4-amine] | 163 to 165
24 | CCc1nc2c(N)nc3cccnc3c2n1CCCCCC(N)=O [Example 56, 6-(4-Amino-2-ethyl-1H-imidazo[4,5-c][1,5]naphthyridin-1-yl)hexanamide] | 220 to 221
25 | CCOCc1nc2c(N)nc3cccnc3c2n1CCCCCC(=O)N1CCOCC1 [Example 57, 2-(Ethoxymethyl)-1-(6-morpholin-4-yl-6-oxohexyl)-1H-imidazo[4,5-c][1,5]naphthyridin-4-amine] | 168 to 170
26 | CCOCc1nc2c(N)nc3cccnc3c2n1CCCCCC(N)=O [Example 58, 6-[4-Amino-2-(ethoxymethyl)-1H-imidazo[4,5-c][1,5]naphthyridin-1-yl]hexanamide] | 215 to 217
27 | CCCc1nc2c(N)nc3ccccc3c2n1CC(N)=O [Example 59, 2-(4-Amino-2-propyl-1H-imidazo[4,5-c]quinolin-1-yl)acetamide] | > 300
28 | CCc1nc2c(N)nc3ccccc3c2n1CC(C)(C)C(N)=O [Example 60, 3-(4-Amino-2-ethyl-1H-imidazo[4,5-c]quinolin-1-yl)-2,2-dimethylpropanamide] | 279 to 281
29 | Cc1nc2c(N)nc3ccccc3c2n1CC(C)(C)C(N)=O [Example 61, 3-(4-Amino-2-methyl-1H-imidazo[4,5-c]quinolin-1-yl)-2,2-dimethylpropanamide] | 284 to 287
30 | CCCCc1nc2c(N)nc3ccccc3c2n1CC(C)(C)C(N)=O [Example 63, 3-(4-Amino-2-butyl-1H-imidazo[4,5-c]quinolin-1-yl)-2,2-dimethylpropanamide] | 231 to 233
31 | CCOCc1nc2c(N)nc3ccccc3c2n1CC1(C(N)=O)CC1 [Example 64, 1-{[4-Amino-2-(ethoxymethyl)-1H-imidazo[4,5-c]quinolin-1-yl]methyl}cyclopropanecarboxamide] | 230.5 to 232.5
32 | CCCc1nc2c(N)nc3ccccc3c2n1CC1(C(N)=O)CCC1 [Example 65, 1-[(4-Amino-2-propyl-1H-imidazo[4,5-c]quinolin-1-yl)methyl]cyclobutanecarboxamide] | 234 to 237
33 | CCc1nc2c(N)nc3ccccc3c2n1CC1(C(N)=O)CCC1 [Example 66, 1-[(4-Amino-2-ethyl-1H-imidazo[4,5-c]quinolin-1-yl)methyl]cyclobutanecarboxamide] | 227 to 230
34 | CCOCc1nc2c(N)nc3ccccc3c2n1CC1(C(N)=O)CCCCC1 [Example 67, 1-{[4-Amino-2-(ethoxymethyl)-1H-imidazo[4,5-c]quinolin-1-yl]methyl}cyclohexanecarboxamide] | 221 to 223
35 | CC(C)(Cn1c(CO)nc2c(N)nc3ccccc3c21)C(N)=O [Example 68, 3-[4-Amino-2-(hydroxymethyl)-1H-imidazo[4,5-c]quinolin-1-yl)-2,2-dimethylpropanamide] | 201 to 203
